Several values for one entry are separate records, joined by “and”; a condition that tells them apart may be missing. Identical values can stand only once. Activity calls are given as the source filed them. The rule behind the calls is not given here. *1 amine or outer side, *2 acyl side, *3 side chain or, on linkers, in order; H or OH if unused. Where a SMILES comes first, the peptide text is derived from it. Bridges are numbered along the chain shown (N, C = ends). Roman numbers before positions name the chains, in order. [ ]: non-standard residue; d: D form. Actinocin(9to1) = Cc1c2oc3c(C)ccc(C(=O)[*:1])c3nc-2c(C(=O)[*:2])c(N)c1=O; NMeV = CN[C@H](C(=O)O)C(C)C; Sar = CNCC(=O)O Where only a bound is given, the exact number is not on record here.

The test system of the test is ADSC/ECFC co-culture, VEGF-stimulated, CD31 tube area. Kind of test: ADSC/ECFC co-culture angiogenesis inhibition – imaging, VEGF stimulation, CD31 staining, tube area, IC50, dose response (AID 1117337).

With `CN1CC[C@H](c2c(O)cc(O)c3c(=O)cc(-c4ccccc4Cl)oc23)[C@H](O)C1`, the IC50 was 0.114 µM.
As for `CCCCCCCCCCCCCCCCCC[N+](C)(C)CCC[Si](OC)(OC)OC`, the IC50 was > 10 µM (inactive).
Regarding `C/C(=C(/OCCOc1ccc(Cl)cc1)c1ccc(Cl)cc1Cl)n1ccnc1`, the IC50 is 5.84 µM (inactive).
For `CS(=O)(=O)CCNCc1ccc(-c2ccc3ncnc(Nc4ccc(OCc5cccc(F)c5)c(Cl)c4)c3c2)o1`, the IC50 is > 10 µM (inactive).
On to `CC[C@]12CCCN3CCc4c(n(c5ccccc45)C(=O)C1)[C@@H]32`, for which the IC50 is > 10 µM (inactive).
Under `CCOC(=O)C1=C[C@]2(CC)CCCN3CCc4c(n1c1ccccc41)[C@@H]32` stands > 10 µM (inactive); under `CCN[C@@H](C)Cc1cccc(C(F)(F)F)c1`, > 10 µM (inactive).
In the case of `Cn1ccc2cc3c(cc21)CCN3C(=O)Nc1cccnc1`, the IC50 was > 10 µM (inactive).
With `CC=CC1C(C(=O)OCc2c(F)c(F)c(COC)c(F)c2F)C1(C)C` (stereo unspecified), the IC50 was > 10 µM (inactive).
Consider `COC(=O)Nc1nc2ccc(C(=O)C3CC3)cc2[nH]1`, for which the IC50 was 1.19 µM.
Take `O=C1C(I)=CC(=C(c2cc(I)c(O)c(I)c2)c2ccccc2C(=O)O)C=C1I`: the IC50 was > 10 µM (inactive).
Regarding `Cc1cc2nc3ccc(=[N+](C)C)cc-3sc2cc1N`, the IC50 is 2.45 µM.
Under `CCN(CC)CCNC(=O)c1c(C)[nH]c(/C=C2\C(=O)Nc3ccc(F)cc32)c1C` stands 0.0254 µM; under `C[C@]12CC[C@@H]3c4ccc(O)cc4CC[C@H]3[C@@H]1CC[C@@H]2OC(=O)CCC1CCCC1`, 6.37 µM (inactive).
Then `Cc1c(C)c2c(c(C)c1O)CC[C@@](C)(CCC[C@H](C)CCC[C@H](C)CCCC(C)C)O2`, with > 10 µM (inactive); and `Clc1ccc(CCC(Cn2ccnc2)Sc2c(Cl)cccc2Cl)cc1` (stereo unspecified), with 3.53 µM.
With `CCc1cccc(N(C)C(N)=Nc2cccc3ccccc23)c1`, the IC50 is > 10 µM (inactive).
For `C[C@@H](NCCCc1cccc(C(F)(F)F)c1)c1cccc2ccccc12`, the IC50 was > 10 µM (inactive).
Then `COC(=O)C(Cl)C(=O)OC`, with > 10 µM (inactive); and `CCCCCCCCCCCCCCCCCCNC(=O)OC1CCN(C(=O)OC[C@H](COC(=O)N(Cc2cccc[n+]2CC)C(=O)c2ccccc2OC)OC)CC1`, with 1.5 µM.
As for `CCCCCCNC(=O)n1cc(F)c(=O)[nH]c1=O`, the IC50 was 4.49 µM.
As for `ClC1=C(Cl)C2(Cl)C(CBr)CC1(Cl)C2(Cl)Cl` (stereo unspecified), the IC50 was > 10 µM (inactive).
Consider `CC(C)Cn1cnc2c1c(=O)n(C)c(=O)n2C`, for which the IC50 was > 10 µM (inactive).
In the case of `Cc1cc(O)c2ccccc2c1O`, the IC50 is 4.89 µM.
Then `CCCSS/C(CCO)=C(\C)N(C=O)Cc1cnc(C)nc1N`, with > 10 µM (inactive); and `Cc1c2oc3c(C)ccc(C(=O)N[C@@H]4C(=O)N[C@H](C(C)C)C(=O)N5CCC[C@H]5C(=O)N(C)CC(=O)N(C)[C@@H](C(C)C)C(=O)O[C@@H]4C)c3nc-2c(C(=O)N[C@@H]2C(=O)N[C@H](C(C)C)C(=O)N3CCC[C@H]3C(=O)N(C)CC(=O)N(C)[C@@H](C(C)C)C(=O)O[C@@H]2C)c(N)c1=O` (I: T[dV]P[Sar][NMeV] / II: T[dV]P[Sar][NMeV]; ester I:1-I:C, II:1-II:C; linker I:N-II:N via Actinocin(9to1)), with 0.001 µM.
Then `CC(C)c1c(C(=O)Nc2ccccc2)c(-c2ccccc2)c(-c2ccc(F)cc2)n1CC[C@@H](O)C[C@@H](O)CC(=O)O`, with > 10 µM (inactive); and `O=C1c2c(O)cccc2Cc2cccc(O)c21`, with 0.604 µM; and `O=C(NC(=O)c1c(F)cccc1F)Nc1ccc(Cl)c(Oc2ncc(C(F)(F)F)cc2Cl)c1`, with > 10 µM (inactive).
Turning to `Nc1nc(=O)n([C@@H]2O[C@H](CO)[C@@H](O)[C@@H]2F)cc1I`, the IC50 was 3.47 µM.
As for `S=C=Nc1ccc(N=C=S)cc1`, the IC50 is > 10 µM (inactive).
On to `CC(C)=CCNc1ncnc2c1ncn2[C@@H]1O[C@H](CO)[C@@H](O)[C@H]1O`, for which the IC50 was 2.66 µM.
Regarding `O=C(Nc1ccc(Cl)cc1)Nc1ccc(Cl)c(Cl)c1`, the IC50 was > 10 µM (inactive).
Under `Cc1nc2ccc(CN(C)c3ccc(C(=O)N[C@@H](CCC(=O)O)C(=O)O)s3)cc2c(=O)[nH]1` stands 0.354 µM; under `Cc1c(N)cccc1C(F)(F)F`, > 10 µM (inactive); under `COc1ccc2cc1Oc1ccc(cc1)C[C@H]1c3c(cc4c(c3Oc3cc5c(cc3OC)CCN(C)[C@@H]5C2)OCO4)CCN1C`, 3.02 µM.
In the case of `COCC(=O)O[C@]1(CCN(C)CCCc2nc3ccccc3[nH]2)CCc2cc(F)ccc2[C@@H]1C(C)C`, the IC50 is > 10 µM (inactive).
In the case of `Oc1c(Br)cc(Br)c2cccnc12`, the IC50 is > 10 µM (inactive).
On to `COC(=O)C1=C(C)NC(C)=C(C(=O)O[C@@H]2CCCN(Cc3ccccc3)C2)[C@@H]1c1cccc([N+](=O)[O-])c1`, for which the IC50 was > 10 µM (inactive).
Then `C[C@H](O)CN(C)C`, with > 10 µM (inactive).
Take `CC[C@]1(O)C[C@@H]2CN(CCc3c([nH]c4ccccc34)[C@@](C(=O)OC)(c3cc4c(cc3OC)N(C)[C@H]3[C@@](O)(C(=O)OC)[C@H](OC(C)=O)[C@]5(CC)C=CCN6CC[C@]43[C@@H]65)C2)C1`: the IC50 is 0.0026 µM and 0.0023 µM.
On to `O=C(OCc1ccccc1)c1cccnc1`, for which the IC50 was > 10 µM (inactive).
Take `CSc1ccc(/C=C2/C(C)=C(CC(=O)O)c3cc(F)ccc32)cc1`: the IC50 is > 10 µM (inactive).
Under `CC12CCC(CC1)C(C)(C)O2` stands > 10 µM (inactive); under `C/C(=N\O)[C@@H](C)NCC(C)(C)CN[C@H](C)/C(C)=N/O`, > 10 µM (inactive).
For the compound `O=c1[nH]sc2cc(Cl)ccc12`, the IC50 was > 10 µM (inactive).
Under `CO[C@H]1O[C@@H]2O[C@@]3(C)CC[C@H]4[C@H](C)CC[C@@H]([C@@H]1C)[C@@]24OO3` stands > 10 µM (inactive).
On to `O=C(O)C1CCC1`, for which the IC50 is > 10 µM (inactive).
As for `CCN(CC)CCNc1ccc(CO)c2sc3ccccc3c(=O)c12`, the IC50 is 8.35 µM (inactive).
As to `O=C(Nc1ccc(Oc2ccc(Cl)cc2)c(Cl)c1)c1cc(I)cc(I)c1O`, the IC50 was > 10 µM (inactive).
Turning to `CCCOc1ccc2nc(NC(=O)OC)[nH]c2c1`, the IC50 is 0.328 µM.
In the case of `O=C(N/N=C/c1ccccc1O)c1ccncc1`, the IC50 is > 10 µM (inactive).
As for `CCCCCCCCOc1ccccc1C(=O)Nc1ccc(C(=O)OCC[N+](C)(CC)CC)cc1`, the IC50 is > 10 µM (inactive).
Regarding `C[C@H]1O[C@@H](O[C@H]2[C@@H](O)C[C@H](O[C@H]3[C@@H](O)C[C@H](O[C@H]4CC[C@@]5(C)[C@H](CC[C@@H]6[C@@H]5CC[C@]5(C)[C@@H](C7=CC(=O)OC7)CC[C@]65O)C4)O[C@@H]3C)O[C@@H]2C)C[C@H](O)[C@@H]1O`, the IC50 was 0.011 µM.
`CCCCCCCCCCCCCCCCNc1ccc(C(=O)O)cc1`: the IC50 was 0.367 µM.
In the case of `Oc1c(I)cc(I)c2cccnc12`, the IC50 is 2.39 µM.
Then `CC(=O)c1ccc(OCC(=O)N2CCCCC2)cc1`, with > 10 µM (inactive); and `CCCCC[C@@H](O)CC[C@H]1[C@@H]2Cc3cccc(OCC(=O)O)c3C[C@@H]2C[C@@H]1O`, with > 10 µM (inactive).
Then `C=CC(C)(O)CCC=C(C)CCC=C(C)C` (stereo unspecified), with > 10 µM (inactive).
Consider `C/C=C(/C(=C/C)c1ccc(OC(C)=O)cc1)c1ccc(OC(C)=O)cc1`, for which the IC50 is > 10 µM (inactive).
Turning to `O=S(c1cc(Cl)cc(Cl)c1O)c1cc(Cl)cc(Cl)c1O`, the IC50 was > 10 µM (inactive).
Turning to `COc1cc(-c2ccc(=O)[nH]n2)ccc1OC(F)F`, the IC50 was 1.22 µM.
`COc1ccc(CCN2CCC(Nc3nc4ccccc4n3Cc3ccc(F)cc3)CC2)cc1`: the IC50 was > 10 µM (inactive).
Under `COc1ccccc1N1CCN(CC(O)COc2cc(OC)c(OC)c(OC)c2)CC1` (stereo unspecified) stands > 10 µM (inactive); under `NC1=NCC2c3ccccc3Cc3ccccc3N12` (stereo unspecified), > 10 µM (inactive).
Then `CO[C@@]12[C@H](COC(N)=O)C3=C(C(=O)C(C)=C(N)C3=O)N1C[C@@H]1N[C@@H]12`, with 0.102 µM; and `CCCCCCC[N+](CC)(CC)CCCCc1ccc(Cl)cc1`, with 6.34 µM (inactive); and `O=[N+]([O-])C(Br)(CO)CO`, with > 10 µM (inactive).
In the case of `CC1=C(C(=O)OC(C)C)C(c2cccc([N+](=O)[O-])c2)C(C(=O)OC2CN(C(c3ccccc3)c3ccccc3)C2)=C(N)N1` (stereo unspecified), the IC50 was 3.58 µM.
Regarding `C=CCCCCCCCCC(=O)OC`, the IC50 was > 10 µM (inactive).
As to `CC(CC=O)CCCC(C)(C)O` (stereo unspecified), the IC50 was > 10 µM (inactive).
For the compound `C#C[C@]1(O)CC[C@@H]2[C@@H]3CCC4=CCCC[C@@H]4[C@H]3C(=C)C[C@@]21CC`, the IC50 was > 10 µM (inactive).
With `O=C1CC(c2ccc(Cl)cc2)CC(=O)N1`, the IC50 was > 10 µM (inactive).
As for `O=[N+]([O-])c1ccc(Oc2ccc(N=C=S)cc2)cc1`, the half-inhibitory concentration (IC50) is 3.72 µM.
Take `COCC(C)N(C(=O)CCl)c1c(C)csc1C` (stereo unspecified): the IC50 was > 10 µM (inactive).
In the case of `O=c1[nH]cc(F)c(=O)[nH]1`, the IC50 is > 10 µM (inactive).
Under `O=C(CCl)c1ccc(Cl)cc1Cl` stands 2.49 µM.
For `Cn1cc(S(C)=O)c(=O)c2ccc(F)cc21` (stereo unspecified), the IC50 was > 10 µM (inactive).
In the case of `COC(=O)c1ccccc1C(=O)OC`, the IC50 was > 10 µM (inactive).
For the compound `CC(COc1ccccc1)NN` (stereo unspecified), the IC50 was > 10 µM (inactive).
With `CCCCCCCCCCCCCC[N+](C)(C)C`, the IC50 is 1.9 µM.
For the compound `CCC1C(=O)OCC1Cc1cncn1C` (stereo unspecified), the IC50 is > 10 µM (inactive).
On to `CCCCCCCCCCCC[N+](C)(C)CCOc1ccccc1`, for which the half-inhibitory concentration (IC50) is 3.38 µM.
As for `CCCCCCCCCCCCCCCCCCOP(=O)([O-])OC1CC[N+](C)(C)CC1`, the IC50 was > 10 µM (inactive).
Regarding `O=C(O)C1(C(=O)O)CCC1.[NH2-].[NH2-].[Pt+2]`, the IC50 is > 10 µM (inactive).
Turning to `O=C1NCCN1CCN1CCC(c2cn(-c3ccc(F)cc3)c3ccc(Cl)cc23)CC1`, the IC50 was > 10 µM (inactive).

The values above are taken from PubChem BioAssay AID1117337 (Cheminformatics & Chemogenomics Research Group (CCRG), …, 2015).
